Structures can show the parent of a compound that is named as a salt.
Columns and labels:
[1] = system: primary human skin fibroblasts; experiment: Vitality of primary human fibroblasts (dye exclusion count); type: cell-based; details: 1-50 mM, 24 hours, serum free medium, FIG. 7
Protocol: An identical number (10^4 cells per well) of primary human skin fibroblasts were inoculated in 24-well plates (Greiner, no. 662160) and were cultured in DMEM (Gibco; no. 41966-092) in the presence of 10% calf serum (Biochrom, S0113/5), 2 mM L-glutamine (Gibco; no. 25030-024), penicillin/streptomycin (100 units penicillin/ml; 100 μg streptomycin/ml, Gibco; no. 15140/122), 5 mg % ascorbic acid (Serva, no. 14030.02) at 37° C., 5% CO2 and 95% humidity. The primary human fibroblasts were prepared according to the instructions of Birkenmeier et al. (1998). After reaching 50% confluency the medium was by fresh serum free medium. Thereafter the following supplements were added to the cells: preparation 1 (equivalent volume of serum free (SF) medium, blank); preparation 2 (1 mM DEL or 1 mM LEL or 1 mM EP); preparation 3 (5 mM DEL or 5 mM LEL or 5 mM EP), preparation 4 (10 mM DEL or 10 mM LEL or 10 mM EP), preparation 5 (20 mM DEL or 20 mM LEL or 20 mM EP), preparation 6 (50 mM DEL or 50 mM LEL or 50 mM EP). The culture was continued at 37° C., 5% CO2 and 95% humidity for 24 hours. Thereafter the supernatants were removed and 100 μl of a 50% […] solution was added to the wells. After washing the cells with medium the unstained and stained cells were counted under the light optical microscope comprising a coordinate plane. Cells stained blue were assessed as avital, unstained cells as vital. The percentage of unstained cells of the total number of cells corresponds to the vitality of the cells.

yeast glyoxalase I = molecular target: T1, yeast glyoxalase I (Saccharomyces cerevisiae, UniProt P50107); experiment: Enzymatic activity of yeast glyoxalase I; type: biochemical; details: for Inhibition of the reaction of yeast glyoxalase I: increasing concentrations (FIG. 1-3; 0-30 mM in FIG. 3)
T1 construct: purchased Sigma G-4252
T1 sequence (P50107 1-326): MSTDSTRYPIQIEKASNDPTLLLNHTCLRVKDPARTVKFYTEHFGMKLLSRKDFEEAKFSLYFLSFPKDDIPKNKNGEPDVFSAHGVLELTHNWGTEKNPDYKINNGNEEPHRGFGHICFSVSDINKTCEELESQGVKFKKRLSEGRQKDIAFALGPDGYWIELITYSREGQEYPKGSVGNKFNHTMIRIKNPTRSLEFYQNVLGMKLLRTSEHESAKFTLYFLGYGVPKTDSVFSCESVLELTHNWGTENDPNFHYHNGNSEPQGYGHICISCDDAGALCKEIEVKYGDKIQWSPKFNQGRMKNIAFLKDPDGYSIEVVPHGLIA
Protocol: Measuring glyoxalase I (E.C.4.4.1.5, lactoyl-glutathione lyase Sigma, G-4252) was performed according to the instructions of McLellan and Thornalley (1989). The principle is based on measuring the initial rate of formation of S-D-lactoyl-glutathione from methylglyoxal (Sigma, M0252, 40%) and reduced L-glutathione (Aldrich, G-4251, >99%). The formation of the product is observed using the extinction coefficient e=2.86 mM−1 cm−1 at 240 nm. The measurement was performed in 50 mM sodium phosphate buffer, pH 7.0. For that purpose 2 mM methylglyoxal and 2 mM reduced glutathione were incubated for 2 minutes at 30° C. for the formation of the hemithioacetal. Thereafter 20 μl of a 1 to 1000 dilution of the glyoxalase I (Sigma, G-4252) was added to 1 ml of the measuring reagent to start the reaction.
Glyoxalase activity (IU) corresponds to the amount of enzyme forming 1 μmol of S-D-lactoyl-glutathione/min.
Determination of glyoxalase I activity was performed according to the general protocol as described above. The influence of ethyl pyruvate on enzyme activity was investigated by addition of increasing concentrations of EP (Sigma; no. E4,780-8; lot. S18972-513) to the measuring reagent.
Determination of glyoxalase I activity was performed according to the general protocol as described above. The influence of compounds of the general formula (I), (II), and (III) on the activity of the enzyme was investigated by addition of increasing concentrations of these compounds to the preparation. The IC50-values were calculated from inhibition curves of each compound.
Determination of glyoxalase I activity . . . was performed according to the general protocol as described above. The influence of 2-oxopropanethioic acid S-ethyl ester on the activity of the enzyme was investigated by addition of increasing concentrations of SE to the preparation for the measurement.
Determination of glyoxalase I activity was performed according to the general protocol as described above. The influence of effectors on the enzymatic activity was investigated by addition of increasing concentrations (0-30 mM) of EP (Sigma; no. E4,780-8; lot. S18972-513) (triangle), BP (prepared according to the instructions of patent JP 11080089; 98%) (circle) and BL (Fluka, 69819; lot. 443090/1 21503090) (squares) to the measuring reagent (FIG. 3).

yeast glyoxalase II = experiment: Enzymatic activity of yeast glyoxalase II (cell free extract); type: biochemical, Saccharomyces cerevisiae; details: 0-20 mM, FIG. 4
Protocol: Protein concentration of the cell free extract was determined according to the Bradford method (Bradford, 1976).
The activity of the glyoxalase II (Hydroxyacyl glutathione hydrolase, E.C. 3.1.2.6.) was determined according to the instructions of Martins et al. (1999) in 0.1 M MES buffer, pH 6.5, 1.5 mM S-D-lactoyl-glutathione (L7140, Sigma-Aldrich Chemistry GmbH) and 0.75 mM DTNB (Sigma, D8130). After addition of suitable amounts of cell extract and an incubation period of 15 min at 25° C. the formation of glutathione was measured at 412 nm (ε=13.6 mM^−1 cm^−1). The activity of the glyoxalase II (IU) correlates with the amount of enzyme hydrolysing 1 μmol of S-D-lactoyl-glutathion/min.
The influence of ethyl pyruvate on the activity of the enzyme was investigated by adding increasing concentrations of EP (Sigma, No. E4,780-8; Lot. S18972-513) (0-20 mM) to the measurement reagent.

[2] = molecular target: T2, glyoxalase I of human erythrocytes (Homo sapiens, UniProt Q04760); experiment: Enzymatic activity of human erythrocyte glyoxalase I; type: biochemical; details: 0-50 mM, FIG. 5
T2 construct: from tissue; host or cells: human erythrocyte lysate
T2 sequence (Q04760 2-184 limits assumed): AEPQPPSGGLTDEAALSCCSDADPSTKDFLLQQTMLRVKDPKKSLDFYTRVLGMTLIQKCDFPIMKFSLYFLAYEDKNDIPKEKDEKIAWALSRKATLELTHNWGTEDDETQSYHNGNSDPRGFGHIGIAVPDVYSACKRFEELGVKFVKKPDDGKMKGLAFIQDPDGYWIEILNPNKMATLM
Protocol: The determination of glyoxalase I was performed as described above for the yeast enzyme. After the formation of the hemithioacetal, suitable amounts (5 to 100 μl) of an erythrocyte lysate were added to 1 ml of the measuring reagent to start the reaction. The erythrocyte lysate was prepared according to the instructions of Mannervik et al. (1982).
Glyoxalase activity (IU) corresponds to the amount of enzyme forming […] of S-D-lactoyl-glutathione/min.
Determination of glyoxalase I activity was performed according to the general protocol as described above. The influence of ethyl pyruvate on enzyme activity was investigated by addition of increasing concentrations of EP (Sigma; no. E4,780-8; lot. S18972-513) (0-50 mM) to the measuring reagent.

[3] = molecular target: T3, glyoxalase II of human erythrocytes (Homo sapiens, UniProt Q16775); experiment: Enzymatic activity of human erythrocyte glyoxalase II; type: biochemical; details: 0-20 mM, FIG. 6
T3 construct: from tissue; host or cells: human erythrocyte hemolysate
Protocol: The determination of erythrocyte glyoxalase II (E.C.3.1.2.6., hydroxyacyl glutathione hydrolase) was performed according to the instructions of McLellan and Thornalley (1989). The principle is based on determining the initial hydrolysis of S-D-lactoyl-glutathione (L 7140, Sigma—Aldrich Chemie GmbH) in the presence of low amounts of a cell extract. Hydrolysis is observed on the basis of the reduction of the extinction at 240 nm (e=−3.1 mM−1 cm−1). Glyoxalase II activity (IU) correlates to the amount of enzyme hydrolysing 1 μmol of S-D-lactoyl-glutathione/min. The measurement was performed in 100 mM Tris-HCl buffer, pH 7.4. For this purpose 0.4 mM S-D-lactoyl-glutathione was added to 1 ml of the measuring reagent and the reaction was started by addition of suitable amounts (5-100 μl) of an erythrocyte hemolysate. The erythrocyte lysate was prepared according to the instructions of Mannervik et al. (1982).
Determination of glyoxalase II activity was performed according to the general protocol as described above. The influence of ethyl pyruvate on the activity of the enzyme was investigated by addition of increasing concentrations of EP (Sigma, no. E 4,780-8; lot. S18972-513) (0-20 mM) to the measuring reagent.

[4] = system: fluconazole resistant Candida albicans strain A435 5; experiment: Growth of fluconazole resistant Candida albicans, O.D. at 600 nm; type: cell-based
Protocol: A colony of the fluconazole resistant Candida albicans strain A435 5 was cultured in the same medium and under the same conditions as used for Saccharomyces HD65-5a.
At an O.D. of 14.4 (600 nm) a starting density of O.D. 0.20 was set by dilution with culture medium.
(§1) Samples of 1 ml were taken after 5 hours and the O.D. at 600 nm was determined as a standard for the cell number. The resistance against fluconazole was determined according to the guidelines of NCCLS (1997). Resistance is defined as growth at a dosage of a ≧64 μg/ml of fluconazole.

[5] = system: fluconazole sensitive Candida albicans strain R/HO13; experiment: Growth of fluconazole sensitive Candida albicans, O.D. at 600 nm; type: cell-based
Protocol: A colony of the fluconazole sensitive Candida albicans strain R/HO13 was cultured as described above. […] Samples of 1 ml were taken after 9 hours and the O.D. was measured at 600 nm.

[6] = system: Candida albicans, Candida krusei, Candida tropicalis, Candida glabrata, Candida parapsilosis; experiment: Agar dilution antimicrobial susceptibility test; type: cell-based, Candida spp.; details: 12.5 mM to 40 mM in agar, 37° C., 20 hours, FIG. 9
Protocol: Control agar plates were prepared without EP.

Candida albicans [7] = experiment: Mouth lavage in a patient suffering from candidiasis; type: in vivo; details: lavage 10 ml 75 mM ethyl pyruvate, 1% glucose in saline, 3 times daily over 4 days
Protocol: A patient with a diagnosis of diabetes mellitus (presenting with a fasting blood sugar level of 6.88 mM) complained about dryness in the mouth, chapped lips and white blotchy alterations of the oral mucosa.

[8] = system: Saccharomyces cerevisiae HD65-5a; experiment: Growth of yeast cells, O.D. at 600 nm; details: increasing concentrations, (FIG. 8, Table 5)
Protocol: A colony of strain HD 65-5a (Saccharomyces cerevisiae) was inoculated in 5 ml YPD-medium [(2% glucose (Fluka), 1% yeast extract (BD, Sparks), 2% peptone (BD, Sparks)] in a rotating 20 ml glass tube and was incubated overnight at 30° C. At an O.D. of 12.9 (580 nm) a starting density of O.D. 0.19 was adjusted by dilution with a culture medium.
The culture was aliquoted to 10 ml (in 20 ml glass tubes), and the respective test substances were added. The aliquots were incubated at 30° C. under continuous rotation of the tubes (200 U/min). At the indicated times, samples were removed and optical density was determined at a wavelength of 600 nm.
A colony of Saccharomyces strain HD65-5a was cultured as describe above.
After defined intervals 1 ml samples were removed and the O.D. was measured at 600 nm.
A colony of Saccharomyces strain HD65-5a was cultured as describe above. […] Samples of 1 ml were taken after 8 hours and were measured at 600 nm.

Candida albicans [9] = experiment: Fluconazole susceptibility according to NCCLS guidelines; type: cell-based
Protocol: as §1
The strain was sensitive against fluconazole at a dosage of ≦0.13 μg/ml.

CCOC(=O)[C@@H](C)O [(+)-Ethyl D-Lactate]
Toxicity / vitality of primary human fibroblasts [1]: not toxic

CCOC(=O)C(C)=O [Ethyl pyruvate]
IC50 (yeast glyoxalase I): 10 mM
Inhibition of the reaction of yeast glyoxalase I (yeast glyoxalase I; listed as EP): inhibit
Inhibition of the reaction of yeast glyoxalase II (yeast glyoxalase II): inhibits
Inhibition of the reaction of glyoxalase I of human erythrocytes [2]: inhibits
Inhibition of the reaction of glyoxalase II of human erythrocytes [3]: inhibits
Toxicity / vitality of primary human fibroblasts [1]: not toxic
Inhibition of growth of fluconazole resistant Candida albicans cells [4]: inhibit
Inhibition of growth of fluconazole sensitive Candida albicans cells [5]: inhibit
Inhibition of growth and proliferation of different fungi (1-7) [6]: effectively inhibits
Reduction of germ number in lavage of the oral cavity (Candida albicans [7]): < 5%
Inhibition of growth of yeast cells ([8]; listed as EP): inhibit

CCCCOC(=O)C(C)=O [Butyl pyruvate]
IC50 (yeast glyoxalase I): 7.5 mM
Inhibition of the reaction of yeast glyoxalase I (yeast glyoxalase I): inhibit
Inhibition of growth of fluconazole resistant Candida albicans cells [4]: inhibit
Inhibition of growth of fluconazole sensitive Candida albicans cells [5]: inhibit
Inhibition of growth of yeast cells [8]: inhibit

CCOC(=O)C(=O)CC [Ethyl 2-oxobutyrate]
IC50 (yeast glyoxalase I): 1.8 mM
Inhibition of growth of fluconazole resistant Candida albicans cells [4]: inhibit

CCOC(=O)[C@H](C)O [(−)-Ethyl L-Lactate]
Toxicity / vitality of primary human fibroblasts [1]: not toxic
Inhibition of growth of yeast cells [8]: did not influence growth

CCSC(=O)C(C)=O [SE, 2-Oxopropanethioic acid S-ethyl ester]
Inhibition of the reaction of yeast glyoxalase I (yeast glyoxalase I): inhibits

CCOC(=O)C(=O)OCC [Diethyl oxalate, reference compound]
IC50 (yeast glyoxalase I): > 50 mM

OC(Cn1cncn1)(Cn1cncn1)c1ccc(F)cc1F [fluconazole]
Fluconazole dosage at which growth defines resistance (Candida albicans [9]; strain A435 5, NCCLS (1997)): ≥ 64 µg/mL
Fluconazole dosage at which the strain was sensitive (Candida albicans [9]; strain R/HO13): ≤ 0.13 µg/mL

COC(=O)C(C)=O [Methyl pyruvate]
IC50 (yeast glyoxalase I): 15 mM

CCCCOC(=O)[C@H](C)O [(−)-Butyl L-Lactate]
Inhibition of the reaction of yeast glyoxalase I (yeast glyoxalase I): does not influence

Reference: patent US20080300303A1, “Substances and Pharmaceutical Compositions for the Inhibition of Glyoxalases and Their Use As Anti-Fungal Agents” (priority 2005, published 2008)
